Test results: patent US20250230193A1, “CYCLIC COMPOUND HAVING SELECTIVE KRAS INHIBITORY EFFECT ON HRAS AND NRAS” (CHUGAI SEIYAKU KABUSHIKI KAISHA, priority 2022, published 2025)
*1 amine or outer side, *2 acyl side, *3 side chain or, on linkers, in order; H or OH if unused. Where a SMILES comes first, the peptide text is derived from it. Bridges are numbered along the chain shown (N, C = ends). [ ]: non-standard residue; d: D form. The star is where a group is joined. hPhe(3,5-F2-4-CF3) = N[C@@H](CCc1cc(F)c(C(F)(F)F)c(F)c1)C(=O)O; hPhe(3-Cl-4-CF3) = N[C@@H](CCc1ccc(C(F)(F)F)c(Cl)c1)C(=O)O; NPrPhe(4-CF3) = CCCN[C@@H](Cc1ccc(C(F)(F)F)cc1)C(=O)O; X26 = COCCCN([C@@H](Cc1ccc(C)cc1)C(=O)[*:2])[*:1]; NMeGly(cPent) = CN[C@H](C(=O)O)C1CCCC1; NMeD = CN[C@@H](CC(=O)O)C(=O)O; NMeL = CN[C@@H](CC(C)C)C(=O)O; αMeV = CC(C)[C@](C)(N)C(=O)O; Morpholide = C1CN(*)CCO1; NMeA = CN[C@@H](C)C(=O)O; Ac5c = NC1(C(=O)O)CCCC1; Aze = O=C(O)[C@@H]1CCN1; Sar = CNCC(=O)O

Assays:
[1] = target: GDP-bound NRAS wild-type protein (Homo sapiens, UniProt P01111); test: Binding to NRAS by surface plasmon resonance (SPR), Single Cycle Kinetics; conditions: for NRAS/KRAS (ratio of KD value for NRAS to KD value for KRAS) / NRAS/KRAS (ratio of KD value with respect to NRAS to KD value with respect to KRAS): GDP-bound NRAS wild-type vs GDP-bound KRAS wild-type
[2] = target: GDP-bound HRAS wild-type protein (Homo sapiens, UniProt P01112); test: Binding to HRAS by surface plasmon resonance (SPR), Single Cycle Kinetics; conditions: for HRAS/KRAS (ratio of KD value for HRAS to KD value for KRAS) / HRAS/KRAS (ratio of KD value with respect to HRAS to KD value with respect to KRAS): GDP-bound HRAS wild-type vs GDP-bound KRAS wild-type
Chain of GDP-bound HRAS wild-type protein (P01112 whole entry): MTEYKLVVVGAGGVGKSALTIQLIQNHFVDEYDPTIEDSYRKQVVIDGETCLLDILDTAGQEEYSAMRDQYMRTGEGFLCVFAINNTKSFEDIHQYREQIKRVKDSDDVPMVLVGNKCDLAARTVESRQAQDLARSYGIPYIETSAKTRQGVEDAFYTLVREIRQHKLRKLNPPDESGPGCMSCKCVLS

Chain of GDP-bound NRAS wild-type protein (P01111 whole entry): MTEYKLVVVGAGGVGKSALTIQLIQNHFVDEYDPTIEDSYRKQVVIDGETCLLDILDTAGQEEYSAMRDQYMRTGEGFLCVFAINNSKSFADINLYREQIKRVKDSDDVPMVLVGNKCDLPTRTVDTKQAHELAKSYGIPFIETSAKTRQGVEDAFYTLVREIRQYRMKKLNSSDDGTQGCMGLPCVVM

CCCN(C)C(=O)[C@@H]1CC(=O)N(C)[C@@H](CC(C)C)C(=O)N[C@@H](C2CCOCC2)C(=O)N(C)CC(=O)N(C)[C@H]2C/C=C\CCN(C2=O)[C@@H](Cc2ccc(C(F)(F)F)cc2)C(=O)N(C)CC(=O)N[C@@H](CCc2cc(F)c(C(F)(F)F)c(F)c2)C(=O)N2C[C@H](OCC)C[C@H]2C(=O)NC2(CC(C)(C)C2)C(=O)N(C)[C@@H](C2CCCC2)C(=O)N1C [PP1923]
NRAS/KRAS (ratio of KD value for NRAS to KD value for KRAS) ([1]; SPR): A (a compound having 10 or more and less than 20 is denoted as A)
HRAS/KRAS (ratio of KD value for HRAS to KD value for KRAS) ([2]; SPR): A (a compound having 10 or more and less than 20 is denoted as A)

CCC[C@H]1C(=O)N[C@@H]([C@@H](C)CC)C(=O)N(C)CC(=O)N(C)[C@H]2C/C=C\CCN(C2=O)[C@@H](Cc2ccc(C)cc2)C(=O)N(C)CC(=O)N[C@@H](CCc2ccc(C(F)(F)F)c(Cl)c2)C(=O)N2C[C@H](OCC)C[C@H]2C(=O)NC2(CCC2)C(=O)N(C)[C@@H](C2CCCC2)C(=O)N(C)[C@H](C(=O)N(C)CC)CC(=O)N1C [PP1895]
NRAS/KRAS (ratio of KD value for NRAS to KD value for KRAS) ([1]; SPR): A (a compound having 10 or more and less than 20 is denoted as A)
HRAS/KRAS (ratio of KD value for HRAS to KD value for KRAS) ([2]; SPR): B (a compound having 3 or more and less than 10 is denoted as B)

CCO[C@@H]1C[C@H]2C(=O)NC3(CC(C)(C)C3)C(=O)N(C)[C@@H](C3CCCC3)C(=O)N(C)[C@H](C(=O)N(C)C)CC(=O)N(C)[C@@H](CC)C(=O)N[C@@H]([C@@H](C)CC)C(=O)N(C)CC(=O)N(C)[C@H]3C/C=C\CCN(C3=O)[C@@H](Cc3ccc(C(F)F)cc3)C(=O)N(C)CC(=O)N[C@@H](CCc3cc(F)c(C(F)(F)F)c(F)c3)C(=O)N2C1 [PP2049]
NRAS/KRAS (ratio of KD value with respect to NRAS to KD value with respect to KRAS) ([1]; SPR): A (a compound having 10 or more and less than 20 is denoted as A)
HRAS/KRAS (ratio of KD value with respect to HRAS to KD value with respect to KRAS) ([2]; SPR): B (a compound having 3 or more and less than 10 is denoted as B)

CCCN1C(=O)CN(C)C(=O)[C@@H]2CCN2C(=O)[C@H]([C@@H](C)CC)NC(=O)[C@H](CC(C)C)N(C)C(=O)C[C@@H](C(=O)N2CCOCC2)N(C)C(=O)[C@H](C2CCCC2)N(C)C(=O)[C@](C)(C(C)C)NC(=O)[C@@H]2CCCN2C(=O)[C@H](CCc2cc(F)c(C(F)(F)F)c(F)c2)NC(=O)CN(C)C(=O)[C@@H]1Cc1ccc(C(F)(F)F)cc1 [PP0773] ([NMeL]I[Aze][Sar][NPrPhe(4-CF3)][Sar][hPhe(3,5-F2-4-CF3)]P[αMeV][NMeGly(cPent)][NMeD]-Morpholide; lactam N-11)
NRAS/KRAS (ratio of KD value with respect to GDP-bound NRAS wild-type protein to KD value with respect to KRAS) ([1]; KD ratio NRAS/KRAS, SPR): B (a compound having 3 or more and less than 10 is denoted as B)
HRAS/KRAS (ratio of KD value with respect to GDP-bound HRAS wild-type protein to KD value with respect to KRAS) ([2]; KD ratio HRAS/KRAS, SPR): B (a compound having 3 or more and less than 10 is denoted as B)

CCC[C@H]1C(=O)N[C@@H](C2CCCC2)C(=O)N(C)CC(=O)N(C)[C@H]2C/C=C\CCN(C2=O)[C@@H](Cc2ccc(C)cc2)C(=O)N(C)CC(=O)N[C@@H](CCc2ccc(C(F)(F)F)c(Cl)c2)C(=O)N2C[C@H](OCC)C[C@H]2C(=O)NC2(CC(C)(C)C2)C(=O)N(C)[C@@H](CC(C)(C)C)C(=O)N(C)[C@H](C(=O)N(C)C)CC(=O)N1C [PP2196]
NRAS/KRAS (ratio of KD value with respect to NRAS to KD value with respect to KRAS) ([1]; SPR): A (a compound having 10 or more and less than 20 is denoted as A)
HRAS/KRAS (ratio of KD value with respect to HRAS to KD value with respect to KRAS) ([2]; SPR): B (a compound having 3 or more and less than 10 is denoted as B)

CCO[C@@H]1C[C@H]2C(=O)NC3(CCC3)C(=O)N(C)[C@@H](C3CCCC3)C(=O)N(C)[C@H](C(=O)N(C)CCOC)CC(=O)N(C)[C@@H](CC3CC3)C(=O)N[C@@H]([C@@H](C)CC)C(=O)N(C)CC(=O)N(C)[C@H]3C/C=C\CCN(C3=O)[C@@H](Cc3ccc(C(F)(F)F)cc3)C(=O)N(C)CC(=O)N[C@@H](CCc3ccc4sccc4c3)C(=O)N2C1 [PP1328]
NRAS/KRAS (ratio of KD value for GDP-bound NRAS wild-type protein to KD value for KRAS) ([1]; SPR, KD ratio class): A (a compound having 10 or more and less than 20 is denoted as A)
HRAS/KRAS (ratio of KD value for GDP-bound HRAS wild-type protein to KD value for KRAS) ([2]; SPR, KD ratio class): A (a compound having 10 or more and less than 20 is denoted as A)

CCO[C@@H]1C[C@H]2C(=O)NC3(CC(C)(C)C3)C(=O)N(C)[C@@H](C3CCCC3)C(=O)N(C)[C@H](C(=O)N(C)CC)CC(=O)N(C)[C@@H](CC(C)C)C(=O)N[C@@H]([C@@H](C)CC)C(=O)N(C)CC(=O)N(C)[C@H]3C/C=C\CCN(C3=O)[C@@H](Cc3ccc(C(F)F)cc3)C(=O)N(C)CC(=O)N[C@@H](CCc3cc(F)c(C(F)(F)F)c(F)c3)C(=O)N2C1 [PP2046]
NRAS/KRAS (ratio of KD value with respect to NRAS to KD value with respect to KRAS) ([1]; SPR): A (a compound having 10 or more and less than 20 is denoted as A)
HRAS/KRAS (ratio of KD value with respect to HRAS to KD value with respect to KRAS) ([2]; SPR): A (a compound having 10 or more and less than 20 is denoted as A)

CCC[C@H]1C(=O)N[C@@H]([C@@H](C)CC)C(=O)N(C)CC(=O)N(C)[C@H]2C/C=C\CCN(C2=O)[C@@H](Cc2ccc(C(F)(F)F)cc2)C(=O)N(C)CC(=O)N[C@@H](CCc2ccc3sc(F)c(C)c3c2)C(=O)N2C[C@H](OCC)C[C@H]2C(=O)NC2(CC(C)(C)C2)C(=O)N(C)[C@@H](C(CC)CC)C(=O)N(C)[C@H](C(=O)N(C)C)CC(=O)N1C [PP2892]
NRAS/KRAS (ratio of KD value with respect to GDP-bound NRAS wild-type protein to KD value with respect to KRAS) ([1]; KD ratio NRAS/KRAS, class symbols): A (a compound having 10 or more and less than 20 is denoted as A)
HRAS/KRAS (ratio of KD value with respect to GDP-bound HRAS wild-type protein to KD value with respect to KRAS) ([2]; KD ratio HRAS/KRAS, class symbols): A (a compound having 10 or more and less than 20 is denoted as A)

CC[C@H](C)[C@@H]1NC(=O)[C@H](CC(C)C)N(C)C(=O)C[C@@H](C(=O)N2CCOCC2)N(C)C(=O)[C@H](C2CCCC2)N(C)C(=O)C2(CCCC2)NC(=O)[C@@H]2CCCN2C(=O)[C@H](CCc2ccc(C(F)(F)F)c(Cl)c2)NC(=O)CN(C)C(=O)[C@H](Cc2ccc(C)cc2)N(CCCOC)C(=O)[C@@H]2CCN2C(=O)[C@H](C)N(C)C1=O [PP0093] ([NMeL]I[NMeA][Aze][X26][Sar][hPhe(3-Cl-4-CF3)]P[Ac5c][NMeGly(cPent)][NMeD]-Morpholide; lactam N-11)
NRAS/KRAS (ratio of KD for GDP-bound NRAS wild-type to KD for KRAS) ([1]; KD ratio NRAS/KRAS, SPR): C (A compound having a KD ratio of 0.1 or more and less than 3 is denoted as C)
HRAS/KRAS (ratio of KD for GDP-bound HRAS wild-type to KD for KRAS) ([2]; KD ratio HRAS/KRAS, SPR): B (a compound having 3 or more and less than 10 is denoted as B)

CC[C@H](C)[C@@H]1NC(=O)[C@H](CC(C)C)N(C)C(=O)C[C@@H](C(=O)N2CCOCC2)N(C)C(=O)[C@H](C2CCCC2)N(C)C(=O)C2(CCCC2)NC(=O)[C@@H]2CCCN2C(=O)[C@H](CCc2ccc(C(F)(F)F)c(Cl)c2)NC(=O)CN(C)C(=O)[C@H](Cc2ccc(C)cc2)N2CC=CC[C@@H](C2=O)N(C)C(=O)CN(C)C1=O [PP0460]
NRAS/KRAS (ratio of KD value with respect to GDP-bound NRAS wild-type protein to KD value with respect to KRAS) ([1]; KD ratio NRAS/KRAS, SPR): C (A compound having a KD ratio of 0.1 or more and less than 3 is denoted as C)
HRAS/KRAS (ratio of KD value with respect to GDP-bound HRAS wild-type protein to KD value with respect to KRAS) ([2]; KD ratio HRAS/KRAS, SPR): C (A compound having a KD ratio of 0.1 or more and less than 3 is denoted as C)
